Assay results taken from PubChem BioAssay (NCI).
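Results reflect a 48-hour exposure of cells in 96-well plates to compound at five concentrations. Abbreviation: GI50, concentration required for 50% inhibition of growth. TGI: concentration producing complete growth inhibition.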 Where a SMILES comes first, the peptide text is derived from it. The star is where a group is joined. Boc = CC(C)(C)OC(=O)*

Columns and labels:
Assay in all cases: growth of human tumour cells (NCI), 48 h
[1] = system: SK-MEL-28 melanoma
[2] = system: SK-OV-3 ovarian
[3] = system: SNB-75 CNS
[4] = system: MOLT-4 leukemia
[5] = system: SR leukemia
[6] = system: NCI/ADR-RES ovarian
[7] = system: HL-60(TB) leukemia
[8] = system: NCI-H23 lung
[9] = system: RPMI-8226 leukemia
[10] = system: SK-MEL-5 melanoma

SMILES: O=C1OC2(C(F)(F)F)Oc3ccccc3CN2C12CCCCC2 (stereo not drawn)
- TGI [1]: > 100 µM
- TGI [2]: 81.7 µM
- TGI [3]: 59.1 µM
- TGI [4]: 54.3 µM
- TGI [5]: 74.8 µM
- TGI [6]: > 100 µM
- TGI [7]: 40.5 µM
- TGI [8]: 95.2 µM

SMILES: CCCC(CC)c1c(O)c(O)c(C(CC)CCC)c(C(CC)CCC)c1C(CC)CCC (stereo not drawn)
- TGI [1]: > 10 µM
- TGI [2]: > 10 µM
- TGI [9]: > 10 µM
- TGI [10]: > 10 µM
- TGI [5]: > 10 µM
- TGI [6]: > 10 µM
- TGI [7]: > 10 µM
- TGI [8]: > 10 µM

SMILES: COc1ccc(Oc2nc3ccc(C(F)(F)F)cc3nc2-c2ccccc2)cc1
- TGI [1]: > 100 µM
- TGI [2]: > 100 µM
- TGI [9]: > 100 µM
- TGI [10]: > 100 µM
- TGI [4]: > 100 µM
- TGI [5]: > 100 µM
- TGI [7]: > 100 µM

SMILES: COC(=O)C(Cc1c[nH]c2ccccc12)NC(=O)C(Cc1c[nH]c2ccccc12)NC(=O)C(Cc1c[nH]c2ccccc12)NC(=O)C(Cc1c[nH]c2ccccc12)NC(=O)OC(C)(C)C (stereo not drawn) (Boc-WWWW-OMe; configuration not given here)
- TGI [1]: > 100 µM
- TGI [3]: > 100 µM
- TGI [9]: 26 µM
- TGI [10]: > 100 µM
- TGI [4]: 20.7 µM
- TGI [5]: 56.6 µM
- TGI [7]: 43.4 µM
- TGI [8]: 92.3 µM

SMILES: CSc1nc(NC2OCC(O)C(O)C2O)c(N)c(=O)n1C (stereo not drawn)
- TGI [1]: > 100 µM
- TGI [2]: > 100 µM
- TGI [3]: > 100 µM
- TGI [9]: > 100 µM
- TGI [10]: > 100 µM
- TGI [4]: > 100 µM
- TGI [6]: > 100 µM
- TGI [7]: > 100 µM
- TGI [8]: > 100 µM

SMILES: CCOC(=O)c1c2c(n(-c3ccc(OC)cc3)c1C)C(=O)C(=O)c1ccccc1-2
- TGI [1]: 3.89 µM
- TGI [2]: 6.03 µM
- TGI [3]: 4.09 µM
- TGI [9]: 2.86 µM
- TGI [10]: 2.59 µM
- GI50 [4]: 1.66 µM
- TGI [4]: > 100 µM
- TGI [6]: 2.01 µM
- TGI [8]: 3.24 µM

SMILES: CCc1nn(S(=O)(=O)c2ccc(C)cc2)c2c1CS(=O)(=O)CC2
- TGI [1]: > 100 µM
- TGI [2]: > 100 µM
- TGI [3]: > 100 µM
- TGI [9]: > 100 µM
- TGI [10]: > 100 µM
- TGI [4]: > 100 µM
- TGI [6]: > 100 µM
- TGI [8]: > 100 µM

SMILES: CC1(C)[C@@H](Cn2cnc3c(=O)[nH]c(N)nc32)CC[C@@]1(C)CO
- TGI [1]: > 100 µM
- TGI [2]: > 100 µM
- TGI [3]: > 100 µM
- TGI [9]: > 100 µM
- TGI [10]: > 100 µM
- TGI [4]: > 100 µM
- TGI [6]: > 100 µM

SMILES: Fc1ccc(C2CC(c3cccc(Nc4ccncc4)c3)=NN2c2cc(Cl)cc(Cl)c2)cc1 (stereo not drawn)
- GI50 [1]: 1.74 µM
- TGI [1]: 3.31 µM
- GI50 [2]: 1.79 µM
- TGI [2]: 3.54 µM
- GI50 [3]: 1.31 µM
- TGI [3]: 2.91 µM
- GI50 [10]: 1.81 µM
- TGI [10]: 3.34 µM
- GI50 [4]: 2.23 µM
- TGI [4]: 5.23 µM
- GI50 [5]: 2.06 µM
- TGI [5]: 4.92 µM
- GI50 [6]: 1.71 µM
- TGI [6]: 3.34 µM
- GI50 [7]: 2.25 µM
- TGI [7]: 5.14 µM
- GI50 [8]: 1.7 µM
- TGI [8]: 3.19 µM

SMILES: OCC(O)C1OC2CC1Nc1ccccc1N2 (stereo not drawn)
- TGI [1]: > 100 µM
- TGI [2]: > 100 µM
- TGI [3]: > 100 µM
- TGI [9]: > 100 µM
- TGI [10]: > 100 µM
- TGI [4]: > 100 µM
- TGI [6]: > 100 µM
- TGI [7]: > 100 µM
- TGI [8]: > 100 µM

SMILES: COc1ccccc1NC(=S)N/N=C(/C)c1ccccn1
- TGI [1]: > 100 µM
- TGI [2]: > 89.2 µM
- TGI [3]: 49.2 µM
- TGI [9]: > 100 µM
- TGI [4]: > 100 µM
- TGI [7]: 2.08 µM
- TGI [8]: > 100 µM

SMILES: C[C@@H]1C[C@]2(C[C@@H](C)[C@H]3C(C[C@@]4(C)CCC[C@@H]5C6=C[C@H](CCC34C)OC6=CC(=O)OC5(C)C)O2)OC1=O (stereo partly drawn)
- TGI [2]: > 51.5 µM
- TGI [3]: 47.5 µM
- TGI [9]: > 51.5 µM
- TGI [10]: > 51.5 µM
- TGI [4]: > 51.5 µM
- TGI [6]: > 51.5 µM
- TGI [7]: > 51.5 µM
- TGI [8]: > 51.5 µM

SMILES: COc1ccc(C[C@H](N)C(=O)N2C[C@H](CO)C[C@H](n3ccc(=O)[nH]c3=O)C2)cc1
- TGI [1]: > 100 µM
- TGI [2]: > 100 µM
- TGI [9]: > 100 µM
- TGI [10]: > 100 µM
- TGI [4]: > 100 µM
- TGI [5]: > 100 µM
- TGI [7]: > 100 µM
- TGI [8]: > 100 µM

SMILES: CC1(C)CN(c2ccccc2)C(=O)C1OC(=O)[C@@]1(C)C[C@@H]2C=C[C@H]1C2 (stereo partly drawn)
- TGI [1]: 35.1 µM
- TGI [2]: 94.7 µM
- TGI [3]: 75 µM
- TGI [9]: 30 µM
- TGI [10]: 29.4 µM
- TGI [4]: > 100 µM
- TGI [6]: 52.2 µM
- TGI [7]: 46.3 µM
- TGI [8]: 56 µM

SMILES: [N-]=[N+]=NC1CC(n2cc(COCC(F)(F)F)c(=O)[nH]c2=O)OC1CO (stereo not drawn)
- TGI [1]: > 100 µM
- TGI [2]: > 100 µM
- TGI [3]: > 100 µM
- TGI [9]: > 100 µM
- TGI [10]: > 100 µM
- TGI [4]: > 100 µM
- TGI [7]: > 100 µM
- TGI [8]: > 100 µM

SMILES: COc1ccc2c(c1)nc1n2C(N)=Nc2ccccc2S1
- TGI [1]: > 100 µM
- TGI [2]: > 100 µM
- TGI [3]: > 100 µM
- TGI [9]: > 82.2 µM
- TGI [10]: > 61.9 µM
- TGI [4]: > 56.6 µM
- TGI [6]: > 100 µM
- TGI [7]: 6.95 µM
- TGI [8]: > 100 µM

SMILES: CC(C)[C@H]1NC(=O)[C@H]2N=C(O[C@@H]2C)[C@@H]2CCCN2C(=O)[C@H](Cc2ccccc2)NC(=O)[C@@H]2CSC(=N2)[C@@H](Cc2ccccc2)NC(=O)[C@@H]2CSC1=N2
- TGI [1]: > 100 µM
- TGI [2]: > 100 µM
- TGI [9]: 94.9 µM
- TGI [10]: > 100 µM
- TGI [4]: > 100 µM
- TGI [5]: > 100 µM
- TGI [6]: > 100 µM
- TGI [7]: > 100 µM
- TGI [8]: > 100 µM

SMILES: CC(NC(=O)OCc1ccccc1)NC(=O)C(CC(=O)OC(C)(C)C)NC(=O)OC(C)(C)C (stereo not drawn)
- TGI [1]: > 100 µM
- TGI [2]: > 100 µM
- TGI [3]: > 100 µM
- TGI [9]: > 100 µM
- TGI [10]: > 100 µM
- TGI [4]: > 100 µM
- TGI [6]: > 100 µM
- TGI [8]: > 100 µM

SMILES: CN1C/C(=C\c2ccc(Cl)cc2)C(=O)/C(=C/c2ccc(Cl)cc2)C1
- TGI [1]: > 100 µM
- TGI [3]: > 100 µM
- TGI [9]: 0.895 µM
- TGI [10]: > 26.5 µM
- TGI [5]: 5.47 µM
- TGI [6]: > 22.5 µM
- TGI [8]: > 22.3 µM

SMILES: Oc1ccc2c(c1)CC[N+]1=C2CCC2CCCC21 (stereo not drawn)
- TGI [1]: > 100 µM
- TGI [2]: > 100 µM
- TGI [3]: > 100 µM
- TGI [10]: > 100 µM
- TGI [8]: > 100 µM

SMILES: C1#Cc2ccccc2OCCOc2ccccc2C#Cc2ccccc2OCCOc2ccccc21
- TGI [1]: > 100 µM
- TGI [9]: 42.4 µM
- TGI [10]: 58.7 µM
- TGI [4]: 31.3 µM
- TGI [6]: > 100 µM
- TGI [7]: > 100 µM
- TGI [8]: 34.8 µM

SMILES: CCOC(=O)CCc1c(C(=O)OCC)[nH]c(/C=C2\NC(=O)C(C)=C2CC)c1C
- TGI [1]: > 100 µM
- TGI [2]: 48.3 µM
- TGI [3]: 27.8 µM
- TGI [9]: > 100 µM
- TGI [4]: > 100 µM
- TGI [6]: 32.4 µM
- TGI [7]: > 100 µM
